Test results: patent US20220401385A1, “Combination Therapy Based on PD-1 Signaling Inhibitors” (Kyoto University, priority 2019, published 2022)
“Also recorded” adds a separate entry of the source.

Key:
MC38 cells = assay: MC38 mouse therapy model, tumor growth and survival; type: in vivo, C57BL/6 mice
Procedure: FIG. 1-1 a) CD8^+ T cells or CD3^+ T cells were isolated from mice, and 2×10^5 cells were stimulated with CD3/CD28 beads in 96-well U plates. After 24 hours and 48 hours, cells and culture supernatant were collected, followed by measurement of spermidine (SPD) concentration by mass spectrometry. […] Ten days after inoculation, PD-L1 antibody (2 mg/kg), PD-L1 antibody+SPD (2 mg/kg), or SPD alone was administered. Subsequently, PD-L1 antibody was administered 4 times at a regular interval of 5 days, and SPD was administered 8 times at a regular interval of 3 days. Tumor growth curve and survival curve are shown. c) Draining lymph nodes (DLNs) of mice were isolated 13 days after tumor inoculation, and stained with antibodies to CD8, CD44 and CD62L. The number of cells in draining lymph node (cells/DLN) in each treatment group is shown at the left side. After being gated, CD8^+ T cells were fractionated with CD44 and CD62L into P1 to P4 cell populations. Percentages and cell numbers of P1 to P4 in each treatment group are shown. d) Tumor was isolated 13 days after tumor inoculation and treated with collagenase. Percentages and numbers per mg tumor of tumor-infiltrating CD8^+ CD45.2^+ cells are shown. For statistical analysis, ANOVA was used. * p<0.05, ** p<0.01, *** p<0.001, **** p<0.0001.
FIG. 8 MC38 cells (5×10^5) were intradermally inoculated into C57BL/6 mice. Ten days after inoculation, PD-L1 antibody (2 mg/kg), PD-L1 antibody+SPD (2 mg/kg) or PD-L1 antibody+SPM (6 mg/kg) was administered. Subsequently, […] was administered 4 times at a regular interval of 5 days, whereas SPD and SPM were administered 8 times at a regular interval of 3 days. Tumor growth curve is shown.
MC38 cells (5×10^5) were intradermally injected on the right flank. Ten days after inoculation, PD-L1 antibody (1-111A; prepared by and stored at the Department of Immunology and Genomic Medicine, Graduate School of Medicine, Kyoto University) (Immunology Letters 84 (2002) 57-62) (2 mg/kg), PD-L1 antibody+SPD (2 mg/kg) or SPD alone was administered to mice. Subsequently, PD-L1 antibody was administered 4 times at a regular interval of 5 days, and SPD was administered 8 times at a regular interval of 3 days. Tumors were measured on every alternate day, and tumor volumes were calculated using the formula for typical ellipsoid, π×(length×breadth×height/6).

CD44 low CD8+ T cells = assay: Seahorse OCR, ATP production and SRC in vitro, CD44 low cells; type: cell-based, mice; details: SPD 0.2 μM
Procedure: (§1) FIG. 4 CD8^+ T cells were isolated from the spleen of mice without tumor inoculation, and further isolated into CD44^+ (CD44 high) and CD44^− (CD44 low) cell populations. a) CD44 low cells were simulated with CD3/CD28 antibody beads and SPD (0.2 μM). After 30 minutes, 1 hour, 2 hours and 72 hours, OCR was measured with a Seahorse analyzer. b) At the same time, total ATP production and glycolytic pathway-derived or mitochondrial activity-derived ATP production were calculated at 30-minute, 1-hour and 2-hour. c) CD44 low cells (2×10^5 cells) were stimulated with CD3/CD28 antibody beads and SPD (0.2 μM). After 24 hours, cell proliferation was examined by means of 3H uptake. d) Spare respiratory capacity (SRC) was calculated from the OCR measurement after 72 hours in a), and results with and without SPD were compared. e) CD44 low cells were stimulated with CD3/CD28 antibody beads and SPD (0.2 μM). After 24 hours, frequencies between apoptotic and viable cells were calculated by PI and Annexin staining. f-j) CD44 high cells were analyzed under the same conditions and by the same methods as described in a-e) above. As regards statistical analysis, t-test was used for comparison of two groups, and ANOVA was used for comparison of three or more groups. * p<0.05, ** p<0.01, *** p<0.001, **** p<0.0001.
Oxygen consumption rates were measured using an XF96 Extracellular Flux Analyzer (Seahorse Bioscience). CD8^+ T cells (4×10^5) per well were seeded in a determined XF96 plate. The four chemical modulators of mitochondrial oxidative phosphorylation, which came with an XF Cell Mito Stress Test Kit (Seahorse Bioscience), were added to the module sequentially. In brief, basal OCR measurement was performed […] sequential addition of oligomycin, FCCP, and rotenone/antimycin A. SRC and ATP production rates were calculated by the following formulas:
SRC (pmo; 02/min)=OCRmaximal−OCRbasal
mitoATP (pmol ATP/min)=(OCRbasal−OCRoligo)×5.5.

CD44 high CD8+ T cells = assay: PI and Annexin apoptosis assay, CD44 high cells; type: cell-based, mice; details: in the presence of SPD 0.2 μM
Procedure: as §1, with “[…] All flow cytometry experiments were performed on FACS Canto II (BD Biosciences)” for “As regards statistical analysis, t-test was used for comparison of two groups,”, “analyzed using FlowJo software (FLOWJO, LLC). […]” for “ANOVA was used for comparison of three or more groups. * p<0.05, ** p<0.01, *** p<0.001, **** p<0.0001.”

With NCCCCNCCCN [SPD, spermidine] the “antitumor effect of the PD-1 inhibitory antibody” value (MC38 cells; SPD (2 mg/kg) in combination with PD-L1 antibody (2 mg/kg), MC38 in C57BL/6 mice) was “synergistically improved; also recorded: greatly enhanced”, the antitumor effect (MC38 cells; spermidine alone, in living bodies) was “no antitumor effect” and the “mitochondrial oxygen consumption (OCR)” value (CD44 low CD8+ T cells; 30 minutes, 1 hour, 2 hours and 72 hours after stimulation) was “increased”. The “ATP production via glycolytic pathway (glyco ATP)” value (CD44 low CD8+ T cells; 1 hour after stimulation) was “significantly high”, the “ATP production via intramitochondrial pathway (mito ATP)” value (CD44 low CD8+ T cells; 1 hour after stimulation) was “significantly high” and the “spare respiratory capacity (SRC)” value (CD44 low CD8+ T cells; 72 hours) was “enhanced; also recorded: significantly high”. The apoptotic cells (CD44 high CD8+ T cells) was “decreased” and the viable cells (CD44 high CD8+ T cells) was “increased; also recorded: significantly high”.
